Laboratory results as given in ChEMBL document CHEMBL1201862, “PubChem BioAssay data set” (2004).
The source made the active and inactive calls.

How the values were obtained:
[1] = target: T1, Replicative DNA helicase DnaB (Mycobacterium tuberculosis, UniProt P9WMR3); assay: DnaB intein splicing inhibitors, dose response, biochemical, cell-free fluorescence (AID 449749); format: functional
T1 sequence (P9WMR3 whole entry): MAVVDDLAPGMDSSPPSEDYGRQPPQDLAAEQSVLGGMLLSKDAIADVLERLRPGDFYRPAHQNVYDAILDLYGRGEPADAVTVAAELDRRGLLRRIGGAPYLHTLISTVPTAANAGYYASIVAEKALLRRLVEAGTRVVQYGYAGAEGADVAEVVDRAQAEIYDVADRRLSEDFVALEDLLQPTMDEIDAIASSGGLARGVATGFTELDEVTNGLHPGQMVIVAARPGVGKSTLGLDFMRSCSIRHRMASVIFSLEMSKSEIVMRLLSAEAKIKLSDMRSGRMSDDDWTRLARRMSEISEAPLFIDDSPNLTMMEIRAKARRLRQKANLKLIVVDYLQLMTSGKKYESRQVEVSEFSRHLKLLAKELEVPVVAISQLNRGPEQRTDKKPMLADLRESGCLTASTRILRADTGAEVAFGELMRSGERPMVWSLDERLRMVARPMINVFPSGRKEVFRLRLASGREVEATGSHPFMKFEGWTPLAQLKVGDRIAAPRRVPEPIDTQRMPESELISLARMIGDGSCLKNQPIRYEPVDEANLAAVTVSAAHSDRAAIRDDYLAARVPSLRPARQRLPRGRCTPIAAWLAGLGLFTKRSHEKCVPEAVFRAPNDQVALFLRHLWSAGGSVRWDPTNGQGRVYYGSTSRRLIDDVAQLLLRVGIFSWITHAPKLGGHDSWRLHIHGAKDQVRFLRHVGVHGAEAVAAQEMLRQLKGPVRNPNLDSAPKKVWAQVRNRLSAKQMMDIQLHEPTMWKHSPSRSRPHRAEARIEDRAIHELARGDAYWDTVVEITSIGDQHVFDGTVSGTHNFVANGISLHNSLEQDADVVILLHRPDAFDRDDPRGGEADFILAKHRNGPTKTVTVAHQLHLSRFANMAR

[2] = NIH3T3 cell viability loss – ATP luminescence, mouse fibroblasts, counter-screen, dose response (AID 2010); format: functional, cell-based;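 also: cells exposed to compound for about 90 hours before reading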
Streptococcus = assay: GAS UMAA2166 growth inhibition – luminescence, BacTiterGlo, counter-screen for streptokinase expression inhibitor project, dose response (AID 1915); format: functional, organism-based;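 also: potency for reduction of bacterial viability or growth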
[3] = Luminescence Cell-Based Dose Retest to Confirm Inhibitors of Cancer Stem Cells. [Related pubchem assays (depositor defined):AID2717, AID2721]; format: functional; conditions: Homo sapiens
Streptokinase A = target: T2, Streptokinase A (Streptococcus pyogenes serotype M1, UniProt P10520); assay: viability-normalized secreted streptokinase activity reduction – plasminogen activation absorbance, OD405, dose response (AID 1914); format: functional, Streptococcus pyogenes M1 GAS;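 also: secreted streptokinase activity via plasminogen activation per viability signal from cell pellet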
T2 sequence (P10520 whole entry): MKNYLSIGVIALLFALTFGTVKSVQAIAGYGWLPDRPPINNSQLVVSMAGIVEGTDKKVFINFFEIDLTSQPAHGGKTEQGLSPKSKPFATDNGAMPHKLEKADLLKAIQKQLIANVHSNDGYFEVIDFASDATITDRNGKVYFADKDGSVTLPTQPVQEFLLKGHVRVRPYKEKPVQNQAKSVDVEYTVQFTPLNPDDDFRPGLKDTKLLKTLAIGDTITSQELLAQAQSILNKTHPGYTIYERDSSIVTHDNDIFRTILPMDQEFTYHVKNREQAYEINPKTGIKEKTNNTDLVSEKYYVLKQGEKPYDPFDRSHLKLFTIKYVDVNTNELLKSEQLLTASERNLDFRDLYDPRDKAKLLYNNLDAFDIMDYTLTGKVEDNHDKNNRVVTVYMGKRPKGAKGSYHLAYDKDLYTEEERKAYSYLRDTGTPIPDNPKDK

Melanocortin receptor 4 = Melanocortin receptor 4 (Homo sapiens, UniProt P32245); format: functional, cell-based;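 also: Cell-based assay with luminescence read-out, confirmatory dose-response testing for agonist activity of biased ligands at MC4R; human U2OS cells with tagged receptor and beta-arrestin; potency of agonists that increase receptor coupling to beta-arrestin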
[4] = test system: Streptococcus sp. 'group A'; assay: Streptococcus pyogenes SK(-)GAS viability under kanamycin – luminescence, BacTiterGlo, confirmation, counter-screen for streptokinase expression inhibitor project, dose response (AID 1900); format: functional, organism-based
[5] = target: T3, Heat shock factor protein 1 (Mus musculus, UniProt P38532); assay: enhancement of HSF1-driven luciferase signal – cell-based, NIH3T3, luminescence, dose retest, confirmation (AID 435004); format: functional;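 also: stress induced by proteasome inhibitor MG132 added 30 min after compound; luciferase reporter driven by HSF1 response element in NIH3T3 cells; actives raise luminescence as potentiators of the MG132 stress response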
T3 sequence (P38532 whole entry): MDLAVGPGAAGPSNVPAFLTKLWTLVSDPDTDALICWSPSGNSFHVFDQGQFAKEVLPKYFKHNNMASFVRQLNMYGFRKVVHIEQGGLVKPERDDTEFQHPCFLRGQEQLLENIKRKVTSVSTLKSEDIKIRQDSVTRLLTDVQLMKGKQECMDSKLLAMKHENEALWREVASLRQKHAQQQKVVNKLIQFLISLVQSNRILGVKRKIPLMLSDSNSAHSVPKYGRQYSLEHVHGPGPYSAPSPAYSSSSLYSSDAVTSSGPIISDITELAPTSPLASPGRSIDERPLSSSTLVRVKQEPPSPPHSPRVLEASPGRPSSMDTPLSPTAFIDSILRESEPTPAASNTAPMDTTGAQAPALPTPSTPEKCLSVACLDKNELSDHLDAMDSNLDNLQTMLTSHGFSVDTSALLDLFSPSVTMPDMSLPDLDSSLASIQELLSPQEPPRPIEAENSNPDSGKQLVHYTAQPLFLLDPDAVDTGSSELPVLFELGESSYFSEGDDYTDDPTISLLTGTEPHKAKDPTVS

[6] = Trypanosoma cruzi growth suppression in host cells – NIH3T3 host cells, beta-gal luminescence, confirmation (AID 2044); format: functional, cell-based;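 also: intracellular parasites grown in NIH/3T3 mouse fibroblasts as host cells; luminescent beta-galactosidase reporter signal from transgenic T. cruzi replicating inside host cells; inhibitors lower the luminescence signal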
Protein RecA = target: T4, Protein RecA (Mycobacterium tuberculosis, UniProt P9WHJ3); assay: Fluorescence Cell-Free Homogeneous Dose Retest to Identify Inhibitors of RecA-Intein Splicing Activity. [Related pubchem assays (depositor defined):AID2097, AID2223, AID489010, AID492950]; format: functional
T4 sequence (P9WHJ3 whole entry): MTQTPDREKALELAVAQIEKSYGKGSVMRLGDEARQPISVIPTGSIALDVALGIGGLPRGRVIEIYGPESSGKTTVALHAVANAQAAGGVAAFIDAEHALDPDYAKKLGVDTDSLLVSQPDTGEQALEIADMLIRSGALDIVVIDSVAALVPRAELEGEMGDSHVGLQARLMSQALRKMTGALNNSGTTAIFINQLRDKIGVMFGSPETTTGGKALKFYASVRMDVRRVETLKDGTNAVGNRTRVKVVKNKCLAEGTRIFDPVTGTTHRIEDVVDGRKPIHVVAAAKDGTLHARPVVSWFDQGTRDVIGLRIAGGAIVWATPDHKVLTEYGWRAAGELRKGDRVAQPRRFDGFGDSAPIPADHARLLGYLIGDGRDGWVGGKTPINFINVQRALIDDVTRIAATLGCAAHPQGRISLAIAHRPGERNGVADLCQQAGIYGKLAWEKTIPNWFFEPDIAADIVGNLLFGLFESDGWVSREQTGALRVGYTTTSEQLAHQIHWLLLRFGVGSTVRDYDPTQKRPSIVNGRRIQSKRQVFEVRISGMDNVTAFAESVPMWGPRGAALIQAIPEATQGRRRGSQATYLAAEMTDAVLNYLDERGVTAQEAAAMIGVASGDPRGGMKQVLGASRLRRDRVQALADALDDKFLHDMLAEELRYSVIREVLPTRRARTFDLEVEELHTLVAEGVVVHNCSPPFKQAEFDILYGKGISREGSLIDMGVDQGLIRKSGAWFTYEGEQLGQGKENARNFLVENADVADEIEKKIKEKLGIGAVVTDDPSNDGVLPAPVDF

[7] = viability of uninfected HEp-2 cells – cell-based, HTS, cytotoxicity control for RSV inhibitor project, dose response (AID 2410); format: functional; conditions: human respiratory syncytial virus
Beta-galactosidase = Beta-galactosidase (Escherichia coli, UniProt Q8VNN2); assay: Dose response counterscreen for EBI2 assay utilizing the enzyme, b-galactosidase.; format: functional
[8] = target: Nuclear receptor subfamily 5 group A member 2 (Homo sapiens, UniProt O00482); format: functional, cell-based;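 also: HEK293T cells transfected with LRH-1 and a StAR promoter luciferase reporter; potency for inhibitors that lower LRH-1 driven reporter light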
Steroidogenic factor 1 = Steroidogenic factor 1 (Homo sapiens, UniProt Q13285); assay: Counterscreen for inverse agonists of the liver receptor homolog-1 (LRH-1; NR5A2): Luminescence-based cell-based high throughput dose response assay to identify inverse agonists of the Steroidogenic Factor 1 Nuclear Receptor (SF1; NR5A1).; format: functional
[9] = nonselective StAR promoter luciferase inhibitors – cell-based, luminescence, luciferase reporter, counter-screen for LRH-1 inverse agonist project, dose response (AID 651969); format: functional
[10] = Vero E6 cell cytotoxicity, dose response, cytotoxicity control for non-replicating M. tuberculosis project, secondary assay (AID 492998); format: functional, VeroE6; conditions: Vero C1008
[11] = THP-1 cell cytotoxicity, dose response, cytotoxicity control for non-replicating M. tuberculosis project (AID 489025); format: functional
[12] = reduction of Shn3 3'UTR-driven luciferase in osteoblasts – cell-based, Clone20 osteoblasts, firefly luciferase, cherry-picked, dose response (AID 624132); format: functional;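 also: firefly luciferase luminescence from reporter carrying the Shn3 3'UTR in osteoblasts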
[13] = loss of viability in HepG2 cells – cell-based, CellTiter-Glo, cherry-picked, cytotoxicity control for Shn3 inhibitor project, dose response (AID 624134); format: functional
INS1 = assay: INS-1E survival protection against cytokine death – cell-based, luminescence, retest, dose response (AID 449756); format: functional; conditions: Rattus norvegicus;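 also: cell death triggered by IL-1 beta plus TNF-alpha plus IFN-gamma mixture; protective hits raise ATP signal compared with cytokine alone wells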
[14] = non-specific 3'UTR reporter inhibition in Clone20-Shn3RL – cell-based, Renilla luciferase, cherry-picked, counter-screen for Shn3 inhibitor project, dose response (AID 624133); format: functional
cells = format: functional

Chain of Steroidogenic factor 1 (Q13285 whole entry): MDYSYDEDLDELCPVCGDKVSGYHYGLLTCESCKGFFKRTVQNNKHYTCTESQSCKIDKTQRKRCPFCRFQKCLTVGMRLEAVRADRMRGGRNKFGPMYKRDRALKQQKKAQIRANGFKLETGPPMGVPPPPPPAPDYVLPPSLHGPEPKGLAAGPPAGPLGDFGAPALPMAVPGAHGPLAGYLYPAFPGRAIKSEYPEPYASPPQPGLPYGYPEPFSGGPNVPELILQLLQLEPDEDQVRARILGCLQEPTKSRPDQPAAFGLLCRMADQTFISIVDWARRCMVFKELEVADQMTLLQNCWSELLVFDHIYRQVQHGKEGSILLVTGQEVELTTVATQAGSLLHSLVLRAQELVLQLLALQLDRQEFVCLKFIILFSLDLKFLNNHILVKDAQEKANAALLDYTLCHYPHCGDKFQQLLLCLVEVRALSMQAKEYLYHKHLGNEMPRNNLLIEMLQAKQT
Chain of Beta-galactosidase (Q8VNN2 whole entry): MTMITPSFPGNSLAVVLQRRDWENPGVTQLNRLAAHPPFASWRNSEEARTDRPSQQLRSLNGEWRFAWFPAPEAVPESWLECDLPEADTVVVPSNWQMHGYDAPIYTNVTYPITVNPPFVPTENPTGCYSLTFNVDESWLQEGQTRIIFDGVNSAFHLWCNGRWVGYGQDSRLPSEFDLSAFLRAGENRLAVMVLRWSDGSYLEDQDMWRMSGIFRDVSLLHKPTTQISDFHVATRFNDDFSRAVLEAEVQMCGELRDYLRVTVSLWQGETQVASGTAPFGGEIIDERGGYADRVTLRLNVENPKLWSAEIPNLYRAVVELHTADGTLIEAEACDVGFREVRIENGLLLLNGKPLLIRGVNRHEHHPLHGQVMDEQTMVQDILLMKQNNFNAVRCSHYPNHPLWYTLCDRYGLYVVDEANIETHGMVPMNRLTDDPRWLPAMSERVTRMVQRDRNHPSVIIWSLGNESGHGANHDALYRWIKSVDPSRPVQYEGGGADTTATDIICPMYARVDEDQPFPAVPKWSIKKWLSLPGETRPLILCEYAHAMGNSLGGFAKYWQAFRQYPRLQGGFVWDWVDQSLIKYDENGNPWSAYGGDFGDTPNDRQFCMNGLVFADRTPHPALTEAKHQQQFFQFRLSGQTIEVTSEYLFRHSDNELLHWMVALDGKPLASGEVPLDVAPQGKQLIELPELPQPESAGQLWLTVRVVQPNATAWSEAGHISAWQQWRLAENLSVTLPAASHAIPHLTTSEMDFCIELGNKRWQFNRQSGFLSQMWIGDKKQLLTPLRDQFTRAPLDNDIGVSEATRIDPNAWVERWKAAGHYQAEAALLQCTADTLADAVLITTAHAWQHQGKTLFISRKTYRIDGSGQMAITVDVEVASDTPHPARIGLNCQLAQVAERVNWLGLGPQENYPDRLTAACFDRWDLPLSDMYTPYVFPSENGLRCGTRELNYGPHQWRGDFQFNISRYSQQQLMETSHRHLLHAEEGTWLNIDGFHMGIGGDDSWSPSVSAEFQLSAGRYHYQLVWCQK
Chain of Nuclear receptor subfamily 5 group A member 2 (O00482 whole entry): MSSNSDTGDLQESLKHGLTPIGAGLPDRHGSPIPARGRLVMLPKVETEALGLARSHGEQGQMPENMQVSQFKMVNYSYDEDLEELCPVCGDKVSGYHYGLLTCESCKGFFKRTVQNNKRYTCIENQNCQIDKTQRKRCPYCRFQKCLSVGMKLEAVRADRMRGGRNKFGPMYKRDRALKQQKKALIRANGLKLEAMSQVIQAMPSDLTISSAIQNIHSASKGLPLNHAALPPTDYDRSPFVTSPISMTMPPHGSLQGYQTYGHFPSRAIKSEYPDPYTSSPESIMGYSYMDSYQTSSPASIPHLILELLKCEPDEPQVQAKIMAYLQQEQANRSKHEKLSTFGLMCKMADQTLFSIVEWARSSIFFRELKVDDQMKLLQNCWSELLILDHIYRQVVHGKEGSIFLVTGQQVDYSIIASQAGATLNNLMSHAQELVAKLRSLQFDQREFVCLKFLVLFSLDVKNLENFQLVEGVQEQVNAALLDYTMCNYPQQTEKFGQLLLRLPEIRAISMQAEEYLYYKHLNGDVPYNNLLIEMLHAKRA
Chain of Melanocortin receptor 4 (P32245 whole entry): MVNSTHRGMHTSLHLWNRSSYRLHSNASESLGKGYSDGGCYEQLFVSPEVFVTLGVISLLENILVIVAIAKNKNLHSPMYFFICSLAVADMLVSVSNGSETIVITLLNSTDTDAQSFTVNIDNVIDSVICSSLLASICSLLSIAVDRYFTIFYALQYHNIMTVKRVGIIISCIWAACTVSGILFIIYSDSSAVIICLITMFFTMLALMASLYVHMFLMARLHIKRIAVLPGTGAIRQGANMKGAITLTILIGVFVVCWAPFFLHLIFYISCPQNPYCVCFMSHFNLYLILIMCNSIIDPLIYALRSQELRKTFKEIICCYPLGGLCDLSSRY

## O=C1C2=C(N=C(S)NC2c2ccc(Cl)cc2)NC(c2ccc(Cl)cc2)N1c1ccc(Cl)cc1 (stereo unspecified)
[1]
  AC50: 5.92 µM (active)
[2]
  EC50: > 60 µM (not active)
Streptococcus
  EC50: 2.61 µM (active)
[3]
  AC50: 4.68 µM (active)
Streptokinase A
  EC50: > 150 µM (not active)
Melanocortin receptor 4
  EC50: 9.63 µM (active)
[4]
  EC50: 1.89 µM (active)
[5]
  EC50: > 260 µM (inactive)
[6]
  EC50: 3.44 µM (active)
Protein RecA
  EC50: 13.1 µM (active)

## Cc1ccc(C)c(N2CCN(C(=O)c3cc4c(C)nc5ccccc5c4o3)CC2)c1
[7]
  CC50: 8.05 µM (active)
Beta-galactosidase
  IC50: > 80 µM (inactive)

## O=C(OCC(=O)N1CCN(C(=O)COC(=O)c2ccc(O)cc2O)CC1)c1ccc(O)cc1O
[8]
  IC50: 3.12 µM (active)
Steroidogenic factor 1
  IC50: 3.09 µM (active)
[9]
  IC50: 35.9 µM (inactive)

## CCOC(=O)C1=C(Nc2ccc(OC)cc2)S/C(=C\c2cc(OC)c(OC)c(OC)c2)C1=O
Beta-galactosidase
  IC50: > 80 µM (inactive)

## O=C(Nc1ccc(Cc2ccncc2)cc1)c1ccc([N+](=O)[O-])o1
[10]
  CC50: 4.99 µM (active)
[11]
  CC50: 5.59 µM (active)
[8]
  IC50: 35.9 µM (inactive)
[12]
  AC50: 2.71 µM (active)
[13]
  AC50: 25.4 µM (active)
INS1
  AC50: 7.72 µM (active)
[14]
  AC50: 13.9 µM (active)
Steroidogenic factor 1
  IC50: 0.831 µM (active)
cells
  IC50: 1.3 µM (active)
[9]
  IC50: 35.9 µM (inactive)
